# Laboratory results as given in the NIST ThermoML archive (doi:10.1016/j.jct.2006.10.008).
# ± gives the expanded uncertainty stated by the source.
# Tests used:
# [1] = excess molar enthalpy (molar enthalpy of mixing); xn = mol fraction of the nth substance listed; conditions: 298.15 K, 101 kPa, Liquid, Calvet calorimetry
# [2] = xn = mol fraction of the nth substance listed; conditions: 298.15 K, 101 kPa, Liquid
structure (smiles),measurement,setting,value
CCCCCOC=O [pentyl methanoate] + ClCCCCCl,excess molar enthalpy,[1]; x1 = 0.0558,-0.00368 ± 0.000215 kcal/mol
same,excess molar enthalpy,[1]; x1 = 0.1297,-0.0102 ± 0.000263 kcal/mol
same,excess molar enthalpy,[1]; x1 = 0.2099,-0.0181 ± 0.000335 kcal/mol
same,excess molar enthalpy,[1]; x1 = 0.2822,-0.0275 ± 0.000406 kcal/mol
same,excess molar enthalpy,[1]; x1 = 0.3497,-0.0373 ± 0.000478 kcal/mol
same,excess molar enthalpy,[1]; x1 = 0.4176,-0.0442 ± 0.000526 kcal/mol
same,excess molar enthalpy,[1]; x1 = 0.4615,-0.0492 ± 0.000574 kcal/mol
same,excess molar enthalpy,[1]; x1 = 0.4847,-0.0503 ± 0.000574 kcal/mol
same,excess molar enthalpy,[1]; x1 = 0.5352,-0.0522 ± 0.000598 kcal/mol
same,excess molar enthalpy,[1]; x1 = 0.5989,-0.0512 ± 0.000574 kcal/mol
same,excess molar enthalpy,[1]; x1 = 0.6703,-0.0498 ± 0.000574 kcal/mol
same,excess molar enthalpy,[1]; x1 = 0.7496,-0.0436 ± 0.000526 kcal/mol
same,excess molar enthalpy,[1]; x1 = 0.8354,-0.0321 ± 0.00043 kcal/mol
same,excess molar enthalpy,[1]; x1 = 0.9293,-0.0167 ± 0.000311 kcal/mol
same,mass density,[2]; x1 = 0.0535,1118.26 ± 0.56 kg/m3
same,mass density,[2]; x1 = 0.1055,1103.42 ± 0.53 kg/m3
same,mass density,[2]; x1 = 0.1566,1089.12 ± 0.5 kg/m3
same,mass density,[2]; x1 = 0.2106,1074.27 ± 0.47 kg/m3
same,mass density,[2]; x1 = 0.2635,1060 ± 0.44 kg/m3
same,mass density,[2]; x1 = 0.3199,1045.06 ± 0.41 kg/m3
same,mass density,[2]; x1 = 0.3768,1030.28 ± 0.38 kg/m3
same,mass density,[2]; x1 = 0.4344,1015.59 ± 0.35 kg/m3
same,mass density,[2]; x1 = 0.4908,1001.46 ± 0.33 kg/m3
same,mass density,[2]; x1 = 0.5505,986.81 ± 0.34 kg/m3
same,mass density,[2]; x1 = 0.6109,972.26 ± 0.36 kg/m3
same,mass density,[2]; x1 = 0.6726,957.67 ± 0.37 kg/m3
same,mass density,[2]; x1 = 0.7351,943.19 ± 0.39 kg/m3
same,mass density,[2]; x1 = 0.7986,928.74 ± 0.41 kg/m3
same,mass density,[2]; x1 = 0.8646,914.02 ± 0.42 kg/m3
same,mass density,[2]; x1 = 0.9292,899.89 ± 0.44 kg/m3
"ClCCCCCCl [1,5-dichloropentane] + COC=O",excess molar enthalpy,[1]; x2 = 0.1095,0.0523 ± 0.000598 kcal/mol
same,excess molar enthalpy,[1]; x2 = 0.2232,0.0884 ± 0.000884 kcal/mol
same,excess molar enthalpy,[1]; x2 = 0.3299,0.1192 ± 0.00112 kcal/mol
same,excess molar enthalpy,[1]; x2 = 0.4118,0.1356 ± 0.00124 kcal/mol
same,excess molar enthalpy,[1]; x2 = 0.4763,0.1457 ± 0.00131 kcal/mol
same,excess molar enthalpy,[1]; x2 = 0.5269,0.1465 ± 0.00131 kcal/mol
same,excess molar enthalpy,[1]; x2 = 0.5661,0.1483 ± 0.00134 kcal/mol
same,excess molar enthalpy,[1]; x2 = 0.613,0.1504 ± 0.00136 kcal/mol
same,excess molar enthalpy,[1]; x2 = 0.6627,0.1476 ± 0.00134 kcal/mol
same,excess molar enthalpy,[1]; x2 = 0.7114,0.1441 ± 0.00129 kcal/mol
same,excess molar enthalpy,[1]; x2 = 0.7734,0.1339 ± 0.00122 kcal/mol
same,excess molar enthalpy,[1]; x2 = 0.8369,0.1151 ± 0.0011 kcal/mol
same,excess molar enthalpy,[1]; x2 = 0.88,0.09362 ± 0.000932 kcal/mol
same,excess molar enthalpy,[1]; x2 = 0.9328,0.0669 ± 0.000741 kcal/mol
same,excess molar enthalpy,[1]; x2 = 0.9693,0.0361 ± 0.000574 kcal/mol
same,mass density,[2]; x2 = 0.1169,1086.48 ± 0.49 kg/m3
same,mass density,[2]; x2 = 0.2211,1077.88 ± 0.48 kg/m3
same,mass density,[2]; x2 = 0.3054,1070.16 ± 0.46 kg/m3
same,mass density,[2]; x2 = 0.3849,1062.32 ± 0.45 kg/m3
same,mass density,[2]; x2 = 0.4622,1054 ± 0.43 kg/m3
same,mass density,[2]; x2 = 0.5291,1046.2 ± 0.41 kg/m3
same,mass density,[2]; x2 = 0.5925,1038.15 ± 0.4 kg/m3
same,mass density,[2]; x2 = 0.6496,1030.38 ± 0.38 kg/m3
same,mass density,[2]; x2 = 0.7004,1022.87 ± 0.37 kg/m3
same,mass density,[2]; x2 = 0.7481,1015.48 ± 0.35 kg/m3
same,mass density,[2]; x2 = 0.792,1008.18 ± 0.34 kg/m3
same,mass density,[2]; x2 = 0.8333,1001 ± 0.32 kg/m3
same,mass density,[2]; x2 = 0.8711,993.92 ± 0.33 kg/m3
same,mass density,[2]; x2 = 0.9066,986.88 ± 0.34 kg/m3
same,mass density,[2]; x2 = 0.94,980.05 ± 0.35 kg/m3
same,mass density,[2]; x2 = 0.9705,973.45 ± 0.35 kg/m3
CCCOC=O [propyl methanoate] + ClCCCCCCCl,excess molar enthalpy,[1]; x1 = 0.083,0.0159 ± 0.000311 kcal/mol
same,excess molar enthalpy,[1]; x1 = 0.1781,0.0287 ± 0.000406 kcal/mol
same,excess molar enthalpy,[1]; x1 = 0.2715,0.0378 ± 0.000478 kcal/mol
same,excess molar enthalpy,[1]; x1 = 0.3516,0.0422 ± 0.000502 kcal/mol
same,excess molar enthalpy,[1]; x1 = 0.4261,0.0428 ± 0.000526 kcal/mol
same,excess molar enthalpy,[1]; x1 = 0.5,0.0403 ± 0.000502 kcal/mol
same,excess molar enthalpy,[1]; x1 = 0.5567,0.0351 ± 0.000454 kcal/mol
same,excess molar enthalpy,[1]; x1 = 0.6558,0.0259 ± 0.000382 kcal/mol
same,excess molar enthalpy,[1]; x1 = 0.7057,0.0203 ± 0.000335 kcal/mol
same,excess molar enthalpy,[1]; x1 = 0.7584,0.015 ± 0.000311 kcal/mol
same,excess molar enthalpy,[1]; x1 = 0.815,0.00994 ± 0.000263 kcal/mol
same,excess molar enthalpy,[1]; x1 = 0.8628,0.00602 ± 0.000239 kcal/mol
same,excess molar enthalpy,[1]; x1 = 0.91,0.00292 ± 0.000215 kcal/mol
same,excess molar enthalpy,[1]; x1 = 0.9591,0.00213 ± 0.000215 kcal/mol
same,mass density,[2]; x1 = 0.0918,1053.78 ± 0.43 kg/m3
same,mass density,[2]; x1 = 0.1702,1044.88 ± 0.41 kg/m3
same,mass density,[2]; x1 = 0.2469,1035.63 ± 0.39 kg/m3
same,mass density,[2]; x1 = 0.3218,1026.16 ± 0.37 kg/m3
same,mass density,[2]; x1 = 0.3877,1017.4 ± 0.36 kg/m3
same,mass density,[2]; x1 = 0.4551,1008 ± 0.34 kg/m3
same,mass density,[2]; x1 = 0.5167,998.95 ± 0.32 kg/m3
same,mass density,[2]; x1 = 0.5747,990.06 ± 0.33 kg/m3
same,mass density,[2]; x1 = 0.6303,981.16 ± 0.34 kg/m3
same,mass density,[2]; x1 = 0.6844,972.09 ± 0.36 kg/m3
same,mass density,[2]; x1 = 0.7354,963.2 ± 0.37 kg/m3
same,mass density,[2]; x1 = 0.7849,954.19 ± 0.38 kg/m3
same,mass density,[2]; x1 = 0.8768,936.4 ± 0.4 kg/m3
same,mass density,[2]; x1 = 0.9196,927.69 ± 0.41 kg/m3
same,mass density,[2]; x1 = 0.9603,919.06 ± 0.42 kg/m3
CCCCCOC=O [pentyl methanoate] + ClCCCl,excess molar enthalpy,[1]; x1 = 0.0406,-0.0082 ± 0.000263 kcal/mol
same,excess molar enthalpy,[1]; x1 = 0.0934,-0.0198 ± 0.000359 kcal/mol
same,excess molar enthalpy,[1]; x1 = 0.1501,-0.0337 ± 0.000454 kcal/mol
same,excess molar enthalpy,[1]; x1 = 0.2054,-0.0459 ± 0.00055 kcal/mol
same,excess molar enthalpy,[1]; x1 = 0.2613,-0.0583 ± 0.000645 kcal/mol
same,excess molar enthalpy,[1]; x1 = 0.3157,-0.0674 ± 0.000717 kcal/mol
same,excess molar enthalpy,[1]; x1 = 0.3653,-0.0765 ± 0.000789 kcal/mol
same,excess molar enthalpy,[1]; x1 = 0.4153,-0.08382 ± 0.000837 kcal/mol
same,excess molar enthalpy,[1]; x1 = 0.4604,-0.08886 ± 0.000884 kcal/mol
same,excess molar enthalpy,[1]; x1 = 0.5014,-0.09156 ± 0.000884 kcal/mol
same,excess molar enthalpy,[1]; x1 = 0.5593,-0.0925 ± 0.000908 kcal/mol
same,excess molar enthalpy,[1]; x1 = 0.6338,-0.08788 ± 0.00086 kcal/mol
same,excess molar enthalpy,[1]; x1 = 0.7235,-0.075 ± 0.000765 kcal/mol
same,excess molar enthalpy,[1]; x1 = 0.8158,-0.055 ± 0.000621 kcal/mol
same,excess molar enthalpy,[1]; x1 = 0.9141,-0.0302 ± 0.00043 kcal/mol
same,mass density,[2]; x1 = 0.0396,1221.77 ± 0.77 kg/m3
same,mass density,[2]; x1 = 0.0779,1199.93 ± 0.72 kg/m3
same,mass density,[2]; x1 = 0.1181,1178.31 ± 0.68 kg/m3
same,mass density,[2]; x1 = 0.1601,1156.97 ± 0.64 kg/m3
same,mass density,[2]; x1 = 0.2047,1135.53 ± 0.59 kg/m3
same,mass density,[2]; x1 = 0.2505,1114.67 ± 0.55 kg/m3
same,mass density,[2]; x1 = 0.3008,1093.1 ± 0.51 kg/m3
same,mass density,[2]; x1 = 0.3529,1072.02 ± 0.47 kg/m3
same,mass density,[2]; x1 = 0.4074,1051.23 ± 0.42 kg/m3
same,mass density,[2]; x1 = 0.4655,1030.4 ± 0.38 kg/m3
same,mass density,[2]; x1 = 0.5288,1009.11 ± 0.34 kg/m3
same,mass density,[2]; x1 = 0.5948,988.32 ± 0.34 kg/m3
same,mass density,[2]; x1 = 0.6639,967.94 ± 0.36 kg/m3
same,mass density,[2]; x1 = 0.7399,946.95 ± 0.39 kg/m3
same,mass density,[2]; x1 = 0.8201,926.19 ± 0.41 kg/m3
same,mass density,[2]; x1 = 0.906,905.54 ± 0.44 kg/m3
